The subject of test [1] is IL-1β production in murine peritoneal macrophages (PECs). The test is described as follows: IL-1β secretion (ELISA) by primed, ATP-pulsed peritoneal macrophages (PECs). The test is classed as cell-based, mouse. How it is done:
FIGS. 1A-1J illustrate the finding that adenosine stimulates IL-1β production in NLRP3 inflammasome-dependent manner. Murine peritoneal macrophages (PECs) were obtained from wild type (WT) mice (FIGS. 1A-1D, 1F-1I), Il1r−/− (FIG. 1E) or Nlrp3−/−, ASC−/−, P2xr7−/−, or Caspase-1−/− mice (FIG. 1J) and were primed with LPS for 16 hours. FIG. 1A: This was followed by treatment for 1 hour with adenosine (Ad, 100 μM), adenosine deaminase inhibitor (EHNA, 10 μM), adenosine deaminase (ADA, 10 U ml^−1), ATP diphosphohydrolase (Apyrase, 10 U ml^−1), or erythro-9-(2-hydroxy-3-nonyl) adenine (EHNA, 10 μM) (FIGS. 1B, 1F-1J)). Pan adenosine agonist (NECA, 1 μM, 10 μM) (FIGS. 1C, 1E), or (FIGS. 1D, 1I) by NECA for 1 and 6 hours, and were then pulsed with ATP for 20 min. Enzyme-linked immunosobent assay (ELISA) of IL-1β, TNF-α, IL-10 and IFN-γ secretion were measured in cell supernatants after pulsing with ATP for 5 hours (FIGS. 1A, 1C-1E, 1J) or indicated time-course (FIGS. 1B, 1G-1I). LDH assay was performed after pulsing with ATP as indicated time-course (FIG. 1F). Data are expressed as the mean±SD from at least three independent experiments. *p<0.05 determined by Student's t-test.
C57BL/6 mice were purchased from the National Cancer Institute. ASC−/−, Caspase-1−/−, Nlrp3−/− and P2xr7−/− mice have been described (Rock et al., 2010, Annu Rev Immunol. 28:321-42). A2ora2a flox/flox mice and LysMcre mice were purchased from Jackson Laboratories. HIF-1a flox/flox mice were kindly provided by Dr. Ruslan M Medzhitov (Yale University). 7- to 12-week-old males with a variety of genetic manipulations were used in most experiments. The number of mice in each experimental group was chosen based on previous experience with these experimental models. Mouse peritoneal macrophages (PECs) were isolated by peritoneal lavage 3 days after intraperitoneal injection of 4% thioglycollate solution (B2551, Fluka,). Cells were plated at the density of 3×10^6 cells in 12-well dishes and non-adherent cells were removed after 3 h. Cells primed overnight with 100 ng/ml LPS or 10 ng/ml Pam3CSK4 were treated with various chemicals and followed stimulation. Cells were cultured in DMEM medium complemented with 10% FBS, penicillin/streptomycin and L-glutamine. Mouse bone marrow derived macrophages were isolated from bone marrow cells, and were differentiated for 7 days in complete RPMI-1640 medium supplemented with 2 mM L-glutamine, 100 U/ml penicillin, 100 μg/ml streptomycin, 50 μM 2-mercaptoethanol (all from Invitrogen), 10% heat-inactivated FBS and 20 ng/ml M-CSF (PeproTech). Kupffer cells (KC) were isolated by the density gradient separation of Optiprep (Sigma), and then plates were gently washed and media was replenished after seeding cells for 2 hours to raise KC purity.
(§1) Primed PECs were both pulsed for 20 min with 5 mM ATP or 10 μM nigericin, and left untreated until culture supernatants were collected. Secretion of IL-1β was determined by enzyme-linked immunoabsorbent assay (ELISA; R&D Systems).
In general terms: ELISA stands for enzyme-linked immunosorbent assay.

Test [2] relates to wild type and Casp-1−/− mice injected with TAA. The test is described as follows: TAA induced liver fibrosis with co-injection of adenosine agonist. The test is classed as in vivo, mouse. The following applies: wildtype mice. How it is done:
FIGS. 16A-16B illustrate increased liver fibrosis in wild-type control but not caspase-1-deficient mice in response to adenosine agonist. FIG. 16A: Wild type and Casp-1−/− mice were injected intraperitoneally with TAA with co-injection of CGS21680 (2.5 mg kg^−1 body weight) or vehicle. The liver tissues from each group were collected […] after first injection, and tissue collagen visualized by Sirius red staining, and the representative images are shown. Scale bar corresponds to 500 μm. FIG. 16B: Total liver RNA was extracted and Timp1 mRNA levels quantified. Data are expressed as the mean±SD from three independent experiments. * p<0.05 determined by Student's t-test.
To further test the effect of increased adenosine signaling on fibrosis wild-type and caspase-1 deficient mice were injected with TAA with and without co-injection of the adenosine agonist CGS21680. After one week, liver tissues were stained for collagen with Sirus Red. CGS21680 increased TAA induced liver fibrosis and Timp1 expression in wildtype but not caspase-1 deficient mice (FIGS. 16A-16B).

The subject of test [3] is IL-1β production in liver Kupffer cells. The test is described as follows: IL-1β secretion by LPS/ATP-stimulated Kupffer cells. The test is classed as cell-based, mouse. The note with it: LPS and ATP. How it is done: FIGS. 6A-6B illustrate the finding that bone marrow macrophages and liver Kupffer cells increase IL-1β in response to adenosine signaling. FIG. 6A: Murine bone marrow derived macrophages (BMDM) were primed with LPS for 16 hours, treated with NECA (10 μM) for 1 hour, and then pulsed with ATP. FIG. 6b: Primary murine liver Kupffer cells were primed with LPS for 16 hours, treated with NECA (10 μM) for 1 hour, and then pulsed with ATP. IL-1β secretion was measured in supernatants 5 hours after pulsing with ATP. Data are expressed as the mean±SD from at least three independent experiments. *p<0.05 determined by Student's t-test.
C57BL/6 mice were purchased from the National Cancer Institute. ASC−/−, Caspase-1−/−, Nlrp3−/− and P2xr7−/− mice have been described (Rock et al., 2010, Annu Rev Immunol. 28:321-42). A2ora2a flox/flox mice and LysMcre mice were purchased from Jackson Laboratories. HIF-1a flox/flox mice were kindly provided by Dr. Ruslan M Medzhitov (Yale University). 7- to 12-week-old males with a variety of genetic manipulations were used in most experiments. […]
as §1

The mark [4] stands for this setting: LPS-primed PECs pulsed with ATP.
[5] abbreviates: PECs from A2A receptor deficient cells.

Data on two molecules can be found in US10624917B2, “Compositions and methods useful for treating or preventing liver diseases or disorders, and promoting weight loss” (YALE UNIVERSITY, priority 2014, dated 2020).

Each structure is given as a SMILES string. Entries after “also recorded” stand apart in the source; their conditions may differ.

As for `CCNC(=O)[C@H]1O[C@@H](n2cnc3c(N)nc(NCCc4ccc(CCC(=O)O)cc4)nc32)[C@H](O)[C@@H]1O` [CGS21680], in test [1] (setting [4]), the IL-1β production result is “increase IL-1β production to a comparable degree to NECA and EHNA”. Further, the IL-1β production entry in test [1] (setting [5]) is given as “not increased”. Also, in test [2], the “TAA induced liver fibrosis” value was “increased” and the Timp1 expression result is given as “increased”.

As for `CCNC(=O)[C@H]1O[C@@H](n2cnc3c(N)ncnc32)[C@H](O)[C@@H]1O` [NECA, 5′-(N-ethylcarboxamido) adenosine], the “IL-1β production in wild-type vs IL-1 receptor deficient macrophages” value in test [1] (LPS + ATP) was “to a similar degree”. The IL-1β production result is given as “stimulated an increase; also recorded: increased” in test [1] (setting [4]), “not increased” in test [1] (setting [5]) and “significantly increased” in test [3]. For the same molecule, the “IL-1β production by LPS and ATP” value in test [1] (macrophages lacking caspase-1, NLRP3, ASC or P2x7 receptor) was “did not result in significant production of IL-1β”.
